Laboratory results taken from patent US20050159599A1, “Cyclic compound, process for producing the same, and pest control agent” (priority 2002, published 2005).

Experiments:
Spodoptera litura [1] = test: Insecticidal effect for Spodoptera litura by spraying treatment to host crop (Test Example 2); format: in vivo; conditions: 120 h; 100 ppm; sprayed on soybean; third-instar larvae of Spodoptera litura; fifth day after; read-out: rate of dead pests (%)
Outline: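 Soybean plants with fully developed primary leaves sprayed to runoff with 100 ppm compound (acetone/Tween 20, sticker water). Dried leaves given to ten third-instar larvae at 25° C.; survivors counted on day 5, mortality as dead/tested × 100.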

Plutella xylostella [2] = test: Insecticidal effect for Plutella xylostella by immersion treatment of host crop root (Test Example 3); format: in vivo; conditions: Plutella xylostella, 120 h; 25 ppm; cabbage root immersed 5 days; ten second-instar larvae on stem and leaves; counted on the fifth day, 24° C.; read-out: rate of dead pests (%)
Outline: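 Washed roots of 4-leaf-stage cabbage immersed in 25 ppm compound solution (acetone/Tween 20 in water) for 5 days. Cut stems and leaves then fed to ten second-instar larvae at 24° C; mortality counted after a further 5 days as dead/tested ×100.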

Plutella xylostella [3] = test: Insecticidal effect for Plutella xylostella by immersion treatment of host crop (Test Example 1); format: in vivo; conditions: foliar, 120 h, cabbage leaf dipped, second-instar larvae of Plutella xylostella, fifth day after, read-out: rate of dead pests (%)
Outline: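 Cabbage leaf discs dipped in 100 ppm compound (acetone/Tween 20, diluted in sticker water), dried, then infested with ten second-instar larvae and kept at 24° C. Survivors counted on day 5; mortality expressed as dead/tested pests ×100.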

Plutella xylostella [4] = test: Pest control effect for Plutella xylostella by plant seedling foot soil surface irrigation treatment, 30th day (Test Example 7); format: in vivo; conditions: 20 mg/plant; soil surface irrigation of cabbage; larvae counted on the 30th day
Experimental: Pest Control Effect for Plutella xylostella by Plant Seedling Foot Soil Surface Irrigation Treatment With Pesticidal Solution
A pesticidal solution which was prepared by dissolving 20 mg of test compound (represented by the compound Nos. in the above Examples) in 0.2 ml of acetone containing Tween 20 (trade name) and then diluting to 3 ml with ion-exchange water, was irrigated on the plant foot soil surface of 2.5-leave stage cabbage. This cabbage plant was transplanted to 1/5000a pot, and left in a facility wherein imagoes of Plutella xylostella were set free to lay eggs successively. On the 30th day after, the number of lavae on the plant was examined. The rate of pest control was calculated by the following formula. rate of pest control (%)=(1−number of pests in treated plant/number of pests in non-treated plant)×100

Spodoptera litura [5] = test: Insecticidal effect for Spodoptera litura by immersion treatment of host crop root (Test Example 4); format: in vivo; conditions: 120 h; 25 ppm; soybean root immersion 5 days; second-instar larvae of Spodoptera litura; fifth day after; read-out: rate of dead pests (%)
Outline: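 Soil was washed from the roots of soybean plants at the primary-leaf stage, and the roots were immersed in a pesticidal solution held in a light-shielded 100 ml Erlenmeyer flask. The solution was made from acetone containing Tween 20, diluted with ion-exchange water. Five days after root immersion, two primary leaves were cut and placed in a 180 ml cup with ten second-instar Spodoptera litura larvae, then kept at 25° C. Survivors were counted five days later. The rate of dead pests (%) was calculated as dead pests divided by test pests, times 100.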

Plutella xylostella [6] = test: Insecticidal effect for Plutella xylostella by seed treatment (Test Example 8); format: in vivo; conditions: cabbage seed treatment, leaves cut 31st day after sowing, first-instar larvae, third day after
Experimental: Insecticidal Effect for Plutella xylostella by Seed Treatment 4% aqueous solution of PVA (polyvinylalcohol) was applied to seeds of cabbage. Then the seeds were powdered with test compound (represented by the compound Nos. in the above Examples), and sowed in a Φ 6 cm in diameter Jiffy Pot (trade name). On the 31th day after sowing, the stem and leaves were cut off, and were put into an ice cream cup (180 ml). Fifteen first-instar larvae of Plutella xylostella were set free therein, and the cup was left in a temperature-controlled breeding room (24° C.). On the third day after, the number of surviving Plutella xylostella was examined. The rate of dead pests was calculated by the following formula. rate of dead pests (%)=(number of dead pests/number of test pests)×100

SMILES	pest or weed control at 100 ppm (Spodoptera litura [1])	pest or weed control at 25 ppm (Plutella xylostella [2])	pest or weed control at 100 ppm (Plutella xylostella [3])	rate of pest control (%) (Plutella xylostella [4])	pest or weed control at 25 ppm (Spodoptera litura [5])	rate of dead pests (%) (Plutella xylostella [6]; 1 mg/seed)	rate of dead pests (%) (Plutella xylostella [6]; 5 mg/seed)	melting point
O=C(c1c(F)cccc1F)N1COCN(c2ccc([S+]([O-])C(F)F)cc2F)C1=O (stereo not drawn) [I-42, 3-(2,6-difluorobenzoyl)-5-[4-(difluoromethylsulfinyl)-2-fluorophenyl]tetrahydro-4H-1,3,5-oxadiazin-4-one]	100%	100%	100%	94%	100%	–	–	–
O=C(c1c(F)cccc1F)N1COCN(c2ccc(SC(F)(F)F)cc2F)C1=O [I-44, 3-(2,6-difluorobenzoyl)-5-[2-fluoro-4-(trifluoromethylthio)phenyl]tetrahydro-4H-1,3,5-oxadiazin-4-one]	100%	100%	100%	96%	100%	100%	97%	–
O=C(c1c(F)cccc1F)N1COCN(c2ccc([S+]([O-])C(F)(F)F)cc2F)C1=O (stereo not drawn) [I-45, 3-(2,6-difluorobenzoyl)-5-[2-fluoro-4-(trifluoromethylsulfinyl)phenyl]tetrahydro-4H-1,3,5-oxadiazin-4-one]	100%	–	–	98%	100%	–	–	–
O=C(c1c(F)cccc1F)N1CSCN(c2ccc(Cl)cc2)C1=O [II-1, 3-(4-chlorophenyl)-5-(2,6-difluorobenzoyl)tetrahydro-4H-1,3,5-thiadiazin-4-one]	–	–	–	–	–	–	–	128.5 to 130.5 °C
O=C(c1c(F)cccc1F)N1C[S+]([O-])CN(c2ccc(Cl)cc2)C1=O (stereo not drawn) [II-2, 3-(4-chlorophenyl)-5-(2,6-difluorobenzoyl)tetrahydro-4H-1,3,5-thiadiazin-4-one-1-oxide]	–	–	–	–	–	–	–	220 to 220.5 °C
O=C(c1c(F)cccc1F)N1CS(=O)(=O)CN(c2ccc(Cl)cc2)C1=O [II-3, 3-(4-chlorophenyl)-5-(2,6-difluorobenzoyl)tetrahydro-4H-1,3,5-thiadiazin-4-one-1,1-dioxide]	–	–	–	–	–	–	–	274 to 275 °C
CC(C)N1CN(C(=O)c2c(F)cccc2F)C(=O)N(c2ccc(Cl)cc2)C1 [III-3, 1-(4-chlorophenyl)-3-(2,6-difluorobenzoyl)-5-isopropyltetrahydro-1,3,5-triazin-2(1H)-one]	–	–	–	–	–	–	–	130 to 131 °C
CN1CN(C(=O)c2c(F)cccc2F)C(=O)N(c2ccc(SC(F)(F)F)cc2F)C1 [III-160, 1-(2,6-difluorobenzoyl)-3-[2-fluoro-4-(trifluoromethylthio)phenyl]-5-methyltetrahydro-1,3,5-triazin-2(1H)-one]	100%	90%	100%	91%	–	–	–	–
CN1CN(C(=O)c2c(F)cccc2F)C(=O)N(c2ccc([S+]([O-])C(F)(F)F)cc2F)C1 (stereo not drawn) [III-164, 1-(2,6-difluorobenzoyl)-3-[2-fluoro-4-(trifluoromethylsulfinyl)phenyl]-5-methyltetrahydro-1,3,5-triazin-2(1H)-one]	100%	–	100%	95%	100%	–	–	–
